The text below walks through data of US8182854B2, “Coffee drink composition” (Kao Corporation, priority 2004, dated 2012).

This data set deals with hydrogen peroxide in urine. The data set can be described thus: Amount of hydrogen peroxide in rat urine after forced p.o. administration (FOX assay). Format: in vivo, SD rats. On the procedure: (c) The coffees obtained above in (a) and (b) were each forcibly administered p.o. (10 mL/kg) to six-week-old male SD rats (n=4). Three hours after the administration, urine was collected and the amount of hydrogen peroxide in their urine was measured. The amount of hydrogen peroxide in urine was measured by FOX (ferrous ion oxidation-xylenol orange) assay. (b) To 7-week-old male SD rats (n=4), 2.4 g/kg of instant coffee (Nescafe decaffeinated) (1.6 mg/kg in terms of hydroxyhydroquinone) and 1.6 mg/kg of hydroxyhydroquinone were forcibly administered p.o, respectively. Prior to administration and three hours and six hours after administration, urine was collected from them and the amount of hydrogen peroxide in urine was measured as in Example 2. To seven-week-old male SD rats (n=3), hydroxyhydroquinone (0.1, 0.3, 1 and 3 mg/kg, respectively) was forcibly administered p.o. Prior to administration and three and six hours after administration, urine was collected from them and the amount of hydrogen peroxide in the urine was determined as in Example 2. (c) The coffees obtained above in (a) and (b) (each, 10 mL/kg) were forcibly administered p.o. to seven-week-old male SD rats (n=8). Prior to administration and three and six hours after the administration, urine was collected from them and the amount of hydrogen peroxide in the urine was measured as in Example 2.

Each structure is given as a SMILES string. Entries after “also recorded” stand apart in the source; their conditions may differ. Where only a bound is given, the exact number is not on record here.

With `Oc1ccc(O)c(O)c1` [hydroxyhydroquinone], for the setting “Example 3, FIG. 3, 7-week-old male SD rats, p.o., 2.4 g/kg instant coffee or 1.6 mg/kg hydroxyhydroquinone, three hours after administration”, the “amount of hydrogen peroxide in urine” value was “significant increase”. Where the note is “Example 4, FIG. 4, seven-week-old male SD rats, hydroxyhydroquinone 0.1, 0.3, 1 and 3 mg/kg p.o., urine three and six hours after administration”, the “amount of hydrogen peroxide in the body (urine)” value is listed as “increases the generation amount of hydrogen peroxide in the body; also recorded: increases dose-dependently”. Besides, the “dose from which the amount of hydrogen peroxide in the body increases” value (Example 4, FIG. 4, seven-week-old male SD rats, p.o.) is at least 0.3 mg/kg.
